{"source": "patent US10568913B2", "about": "“Method for generating mature β-like cells” (The University of Western Australia, priority 2013, dated 2020)", "key": {"[1]": {"system": "Ngn3+ progenitor-containing E-cad+ cells", "assay": "Insulin-producing (MIPGFP+) cell differentiation from sorted E-cad+ cells of E15.5 MIPGFP mouse pancreas", "type": "cell-based", "details": "for effect on Nic-induced differentiation: co-culture with Nic 10 mM (FIG. 1g, 5, 13, 15); for promotion of MIPGFP+ insulin-producing cell differentiation by the molecule on its own: compound alone, without Nic, day 4 (FIG. 1g, 5a)", "experimental": "Approximately 7,500 E15.5 [at which the number of Ngn3^+ progenitors is peaked] mouse fetuses from both MIPGFP and Ngn3-GPF/RIP-DsRed lines were used for enrichment/purification of Ngn3^+ progenitors. Mouse pancreases were dissected under a stereoscope (Olympus, Tokyo, Japan). Eleven human fetal pancreases were collected from 18-22 week-fetuses (Table 1) and minced. Both mouse and human pancreases were enzymatically dissociated into single cells under aseptic conditions. […] After each incubation with antibodies, cells were washed twice with FACS buffer (0.1% bovine serum albumin in phosphate buffered saline) and finally re-suspended in this buffer containing 1 μg/ml propidium iodide (PI) or 4′,6-diamidino-2-phenylindole (DAPI) for sorting (FACSAria II, Becton Dickson Labware, Bedford). The purity of sorted cells was determined by post-sort analysis.\nSorted β-cell progenitor-enriched cells or Ngn3^+ β-cell progenitors were differentiated in 96-, 12- or 6-well plates (BD Labware). […] Growth factor-reduced Matrigel (200 μg/ml, BD Biosciences) was overlayed onto cells in the presence of various potential regulators. Thyrotropin releasing hormone (TRH, 100 nM) was purchased from Auspep (Melbourne, Australia). […] Cultures were incubated in 10% CO2 90% air at 37° C., for up to 8 days.\nThe number of β-like cells was directly quantified under a fluorescence microscope. To verify the accuracy of cell count, at least five randomly chosen fields per well were microphotographed under the inverse IX71 Olympus fluorescence microscope (Olympus, Tokyo, Japan) and the number of β-like cells determined with the Image Pro Plus software installed in the computer."}, "[2]": {"system": "Ngn3+ islet progenitors", "assay": "DsRed+ cell differentiation from purified Ngn3-GFP+ progenitors (Ngn3-GFP/RIP-DsRed mice)", "type": "cell-based, mouse", "source_text": "(§1) Approximately 7,500 E15.5 [at which the number of Ngn3^+ progenitors is peaked] mouse fetuses from both MIPGFP and Ngn3-GPF/RIP-DsRed lines were used for enrichment/purification of Ngn3^+ progenitors. Mouse pancreases were dissected under a stereoscope (Olympus, Tokyo, Japan). Eleven human fetal pancreases were collected from 18-22 week-fetuses (Table 1) and minced. Both mouse and human pancreases were enzymatically dissociated into single cells under aseptic conditions. Rat anti-E-cadherin (E-cad, also known as CD324 or uvomorulin) monoclonal antibody IgG2a (Invitrogen, Carlsbad), Alexa Fluor 647 anti-E-cad (eBioscience), rat anti-integrin α6 subunit (α6, also known as CD49f) mAb IgG2a, phycoerythrin (PE) rat anti-human α6 (Becton Dickson Biosciences, San Jose), PE anti-mouse CD133 (also known as prominin I, eBioscience), biotin rabbit anti-rat immunoglobumins, allophycocyanin (APC) rat anti-mouse CD45 and APC rat anti-mouse TER119 and streptavidin APC-Cy7, streptavidin PE-Texas Red, streptavidin APC (BD Biosciences) or streptavidin Alexa Fluor 750 (Invitrogen), were used. After each incubation with antibodies, cells were washed twice with FACS buffer (0.1% bovine serum albumin in phosphate buffered saline) and finally re-suspended in this buffer containing 1 μg/ml propidium iodide (PI) or 4′,6-diamidino-2-phenylindole (DAPI) for sorting (FACSAria II, Becton Dickson Labware, Bedford). The purity of sorted cells was determined by post-sort analysis. Data presented represented cell samples with over 90% purity.\nSorted β-cell progenitor-enriched cells or Ngn3^+ β-cell progenitors were differentiated in 96-, 12- or 6-well plates (BD Labware). The basal differentiation medium is Dulbecco's Modified Eagle Medium (Invitrogen) with 5.75 or 27.5 mM D-glucose supplemented with 1% B27 (Invitrogen) and 100 μg/ml streptomycin and 100 units/ml penicillin. Growth factor-reduced Matrigel (200 μg/ml, BD Biosciences) was overlayed onto cells in the presence of various potential regulators. […]\nThe number of β-like cells was directly quantified under a fluorescence microscope. […]"}, "[3]": {"system": "human islet progenitors (population III)", "assay": "Differentiation of FACS-enriched human fetal islet progenitors, immunofluorescence for insulin and glucagon", "type": "cell-based", "details": "6 days, 10 mM Nic", "source_text": "as §1, with “After each incubation with antibodies, cells were washed twice with FACS buffer (0.1% bovine serum albumin in phosphate buffered saline) and finally re-suspended in this buffer containing 1 μg/ml propidium iodide (PI) or 4′,6-diamidino-2-phenylindole (DAPI) for sorting (FACSAria II, Becton Dickson Labware, Bedford).” left out, “Data presented represented cell samples with over 90% purity.” left out"}, "[4]": {"system": "MIN6 cells", "assay": "Glucose stimulated insulin secretion in highly passaged MIN6 cells", "type": "cell-based, mouse", "details": "FIG. 20, 21", "experimental": "The differentiated cells were washed twice with warm PBS. After pre-incubation with Krebs-Ringer buffer at 37° C. for 90 min, the cells were incubated at 37° C. for 60 min with basal D-glucose (2.75 mM) or stimulus D-glucose (27.5 mM). Then each conditioned medium was collected to determine the insulin concentration using an insulin ELISA kit (Mercodia AB, Uppsala, Sweden). MIN6 cells were routinely maintained in a published protocol which contains Dulbecco's modified Eagle's medium (DMEM) containing 25 mM glucose, supplemented with 10% fetal calf serum, 2 mM L-glutamine, 25 mM Hepes, and 285 μM 2-mercaptoethanol. MIN6 cells presented in this study were at passages 30-40 (low passage, LP) or passages 60-70 (high passage, HP). All assays used MIN6 grown to 70-80% confluence unless otherwise stated."}}, "data": [{"molecule": "6-chloro-2,3,4,9-tetrahydro-1H-carbazo-1-carboxamide [EX527]", "values": [{"measurement": "effect on Nic-induced differentiation", "setting": "[1]", "result": "did reduce Nic-induced differentiation"}, {"measurement": "promotion of MIPGFP+ insulin-producing cell differentiation by the molecule on its own", "setting": "[1]", "result": "did not significantly promote differentiation"}]}, {"molecule": "O=C1Nc2cc(Br)ccc2/C1=C1/Nc2ccccc2/C1=N\\O", "note": "[BIO, (2′Z,3′E)-6-bromoindirubin-3′-oxime]", "values": [{"measurement": "effect on Nic-induced differentiation", "setting": "[1]", "result": "suppressed or abolished"}, {"measurement": "promotion of MIPGFP+ insulin-producing cell differentiation by the molecule on its own", "setting": "[1]", "result": "did not yield"}]}, {"molecule": "C[C@H](NC(=O)Cc1cc(F)cc(F)c1)C(=O)N[C@H](C(=O)OC(C)(C)C)c1ccccc1", "note": "[DAPT]", "values": [{"measurement": "promotion of MIPGFP+ insulin-producing cell differentiation by the molecule on its own", "setting": "[1]", "result": "did not yield"}]}, {"molecule": "NC(=O)c1ccncc1", "note": "[INic, isonicotinamide]", "values": [{"measurement": "number of MIPGFP+ cells compared to Nic", "setting": "[1]; INic 10 mM alone, days 4, 6 and 8", "result": "approximately half"}]}, {"molecule": "NC(=O)c1cccnc1", "note": "[Nic, pyridine-3-carboxylic acid amide]", "values": [{"measurement": "number of MIPGFP+ cells, fold more in the presence of Nic", "setting": "[1]; Nic 10 mM, serum-free and feeder-free culture (FIG. 1c,d)", "result": "at least 17 fold"}, {"measurement": "number of differentiated DsRed+ cells, share of optimal levels", "setting": "[2]; Nic added at 24 hr after plating, counted at day 4", "result": "approximately 40%"}, {"measurement": "DsRed+ cells, share of all cells by FACS", "setting": "[2]; day 4 of culture, 0% at the start", "result": 35, "unit": "%"}, {"measurement": "α and β cells detected immunochemically in cultured population III", "setting": "[3]", "result": "numerous single hormone-positive α and β cells"}, {"measurement": "glucose stimulated insulin secretion (GSIS) in dedifferentiated, highly passaged MIN6 cells", "setting": "[4]", "result": "regain partial GSIS"}]}, {"molecule": "O=C(O)C(Cc1c[nH]c2ccccc12)N1C(=O)c2ccccc2C1=O", "note": "(stereo not drawn) [RG-108, α-(1,3-dihydro-1,3-dioxo-2H-isoindo1-2-yl)-1H-indole-3-propanoic acid]", "values": [{"measurement": "promotion of MIPGFP+ insulin-producing cell differentiation by the molecule on its own", "setting": "[1]", "result": "did not yield"}]}, {"molecule": "NC(=O)[C@@H]1CCCN1C(=O)[C@H](Cc1cnc[nH]1)NC(=O)[C@@H]1CCC(=O)N1", "note": "[TRH, Thyrotropin releasing hormone]", "values": [{"measurement": "promotion of MIPGFP+ insulin-producing cell differentiation by the molecule on its own", "setting": "[1]", "result": "did not yield"}]}, {"molecule": "COc1cc(/C=C/C(=O)CC(=O)/C=C/c2ccc(O)c(OC)c2)ccc1O", "note": "[curcumin, (E, E)-1,7-bis (4-hydroxy-3-methoxyphenyl)-1,6-heptadiene-3,5-dione]", "values": [{"measurement": "effect on Nic-induced differentiation", "setting": "[1]", "result": "significantly reduced"}]}, {"molecule": "NC(=O)c1ccc[n+]([C@@H]2O[C@H](COP(=O)([O-])O)[C@@H](O)[C@H]2O)c1", "note": "[nicotinamide mononucleotide, β-nicotinamide mononucleotide]", "values": [{"measurement": "effect on Nic-induced differentiation", "setting": "[1]", "result": "did not modify"}]}, {"molecule": "O=c1c(O)c(-c2ccc(O)c(O)c2)oc2cc(O)cc(O)c12", "note": "[quercetin]", "values": [{"measurement": "effect on Nic-induced differentiation", "setting": "[1]", "result": "suppressed or abolished"}, {"measurement": "promotion of MIPGFP+ insulin-producing cell differentiation by the molecule on its own", "setting": "[1]", "result": "did not yield"}]}, {"molecule": "Oc1ccc(/C=C/c2cc(O)cc(O)c2)cc1", "note": "[resveratrol, 5-[(1E)-2-(4-hydroxyphenyl)ethenyl]-1,3-benzenediol]", "values": [{"measurement": "effect on Nic-induced differentiation", "setting": "[1]", "result": "completely abolished"}, {"measurement": "cellular viability", "setting": "[1]; in combination with Nic", "result": "without apparently affecting cellular viability"}]}, {"molecule": "CCCC(=O)[O-].[Na+]", "note": "[sodium butyrate]", "values": [{"measurement": "effect on Nic-induced differentiation", "setting": "[1]", "result": "significantly (p<0.05) reduced"}]}, {"molecule": "CC(=O)C(=O)[O-].[Na+]", "note": "[sodium pyruvate]", "values": [{"measurement": "effect on Nic-induced differentiation", "setting": "[1]", "result": "significantly inhibited"}]}, {"molecule": "CC(/C=C/C(=O)NO)=C\\[C@@H](C)C(=O)c1ccc(N(C)C)cc1", "note": "[trichostatin A]", "values": [{"measurement": "effect on Nic-induced differentiation", "setting": "[1]", "result": "significantly (p<0.05) reduced"}]}, {"molecule": "C[C@H](NC(=O)Cc1cc(F)cc(F)c1)C(=O)N[C@H]1N=C(c2ccccc2)c2ccccc2N(C)C1=O", "note": "[γ-secretase inhibitor XXI]", "values": [{"measurement": "promotion of MIPGFP+ insulin-producing cell differentiation by the molecule on its own", "setting": "[1]", "result": "did not yield"}]}, {"molecule": "CC(C)C[C@H](NC(=O)[C@H](Cc1ccccc1)C[C@@H](O)[C@H](Cc1ccccc1)NC(=O)OC(C)(C)C)C(=O)N[C@@H](Cc1ccccc1)C(N)=O", "note": "[γ-secretase inhibitor X]", "values": [{"measurement": "promotion of MIPGFP+ insulin-producing cell differentiation by the molecule on its own", "setting": "[1]", "result": "did not yield"}]}, {"molecule": "exendin-4 [Ex4]", "values": [{"measurement": "promotion of MIPGFP+ insulin-producing cell differentiation by the molecule on its own", "setting": "[1]", "result": "did not yield"}]}]}
